Legend:
hGHR = molecular target: T1, hGHR (Homo sapiens, UniProt P10912); assay: hGH-mediated pSTAT5 in SK-MEL-28 cells, Western blot; type: cell-based; details: 20 min, Western blot densitometry, n = 3
T1 construct: previously reported to express high levels of endogenous hGHR; host or cells: SK-MEL-28, MALME-3M, IM9
T1 sequence (P10912 19-638): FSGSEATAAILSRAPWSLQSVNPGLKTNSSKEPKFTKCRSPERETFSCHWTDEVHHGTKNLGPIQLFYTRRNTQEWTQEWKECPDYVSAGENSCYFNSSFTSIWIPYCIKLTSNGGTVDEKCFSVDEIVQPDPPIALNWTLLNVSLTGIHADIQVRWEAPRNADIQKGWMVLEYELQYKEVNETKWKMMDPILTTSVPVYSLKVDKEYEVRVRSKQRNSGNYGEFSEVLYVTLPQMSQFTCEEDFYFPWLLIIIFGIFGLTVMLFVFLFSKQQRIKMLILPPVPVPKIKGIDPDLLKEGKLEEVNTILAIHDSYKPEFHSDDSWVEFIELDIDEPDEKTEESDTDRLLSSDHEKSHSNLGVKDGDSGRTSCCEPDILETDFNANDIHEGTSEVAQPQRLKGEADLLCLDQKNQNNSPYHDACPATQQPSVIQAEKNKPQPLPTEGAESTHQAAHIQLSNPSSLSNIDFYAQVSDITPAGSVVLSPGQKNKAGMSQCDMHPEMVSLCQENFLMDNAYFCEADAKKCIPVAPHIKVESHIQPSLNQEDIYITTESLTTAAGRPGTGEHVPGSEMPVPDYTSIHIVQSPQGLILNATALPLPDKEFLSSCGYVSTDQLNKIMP
Description: (§1) SK-MEL-28, MALME-3M, and T84 cells were grown and maintained in Eagle's Minimal Essential Medium. IM9 and L cells were grown in RPMI-1640 media and Dulbecco's modified Eagle's medium, respectively. All growth media was supplemented with 10% fetal bovine serum and 1× antibiotic-antimycotic […] solution. Cells were grown at 37 °C under a 5% CO2 atmosphere in a humidified incubator, and growth media was replaced every 48 h during incubation. No hGH was present in or added to the growth media unless specifically indicated. […]
(§2) Following treatment, the cells were harvested at the indicated time points, and the total protein was extracted. […] Sample protein concentration was quantified using a Bradford assay with bovine serum albumin as the protein standard. Absorbance at 595 nm was measured using a Spectramax 250 multimode plate reader (Molecular Devices) and processed using SoftmaxPro v4.7.1 software.
(§3) Cytosolic fractions from treated cells were thawed on ice, and 80 μg protein was loaded onto polyacrylamide gels for separation by SDS-PAGE. […] Chemiluminescence signals were detected using a GelDoc (BioRad) fluorescence imager. […] Percent inhibition was then measured by subtracting the pSTAT5 band intensity in each lane from the pSTAT5 band intensity of hGH-treated samples. […]

mouse GHR = molecular target: T2, mouse GHR (Mus musculus, UniProt P16882); assay: hGH-mediated pSTAT5 in L (mouse fibroblast) cells, Western blot; type: cell-based; details: 200 nM S1H with 2.5 nM hGH, 20 min, Western blot densitometry, n = 3
T2 construct: the mouse L fibroblasts express high levels of mouse GHR; host or cells: mouse L fibroblasts
T2 sequence (P16882 25-650): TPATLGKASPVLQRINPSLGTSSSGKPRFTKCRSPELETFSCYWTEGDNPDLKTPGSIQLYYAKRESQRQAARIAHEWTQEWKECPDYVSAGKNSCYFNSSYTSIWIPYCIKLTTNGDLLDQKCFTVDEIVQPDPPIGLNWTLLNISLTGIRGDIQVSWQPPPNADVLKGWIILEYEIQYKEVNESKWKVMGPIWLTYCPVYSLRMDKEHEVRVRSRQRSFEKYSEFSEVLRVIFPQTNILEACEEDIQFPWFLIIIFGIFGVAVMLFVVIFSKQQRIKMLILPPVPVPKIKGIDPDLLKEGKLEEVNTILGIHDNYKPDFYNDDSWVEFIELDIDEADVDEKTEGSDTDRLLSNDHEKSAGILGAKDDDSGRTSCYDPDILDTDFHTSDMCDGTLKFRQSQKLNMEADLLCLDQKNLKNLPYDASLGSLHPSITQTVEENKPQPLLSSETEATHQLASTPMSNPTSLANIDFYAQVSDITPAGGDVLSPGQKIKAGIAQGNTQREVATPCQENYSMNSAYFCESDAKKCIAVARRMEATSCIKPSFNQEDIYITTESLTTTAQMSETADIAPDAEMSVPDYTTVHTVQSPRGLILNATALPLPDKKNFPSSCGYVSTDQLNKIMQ
Description: as §1, §2, §3

suppression of hGH-mediated pSTAT5 (hGHR; 100 nM S1H with 2.5 nM hGH): 46%
suppression of hGH-mediated pSTAT5 (hGHR; 200 nM S1H with 2.5 nM hGH): 67%
suppression of hGH-mediated pSTAT5 (mouse GHR): 36%
Compound: CC[C@H](C)[C@H](NC(=O)[C@H](Cc1ccc(O)cc1)NC(C)=O)C(=O)N1CCC[C@H]1C(=O)N[C@@H](CCCCN)C(=O)N[C@@H](CCC(=O)O)C(=O)N[C@@H](CCC(N)=O)C(=O)N[C@@H](CCCCN)C(=O)N[C@@H](Cc1ccc(O)cc1)C(=O)N[C@@H](CO)C(=O)N[C@@H](Cc1ccccc1)C(=O)N[C@@H](CC(C)C)C(=O)N[C@@H](CCC(N)=O)C(=O)N[C@@H](CC(N)=O)C(=O)N1CCC[C@H]1C(=O)N[C@@H](CCC(N)=O)C(=O)N[C@H](C(N)=O)[C@@H](C)O [S1H]

From publication PMC8086144, “A novel peptide antagonist of the human growth hormone receptor” (The Journal of Biological Chemistry, 2021)
